Measurements taken from patent US7537891B2, “Identification of polynucleotides for predicting activity of compounds that interact with and/or modulate protein tyrosine kinases and/or protein tyrosine kinase pathways in breast cells” (Bristol-Myers Squibb Company, priority 2002, dated 2009).

How the values were obtained:
Test in all cases: In vitro cytotoxicity assay (MTS)
Assay type in all cases: cell-based, human
Set-up in all cases: key to True Class: “S” represents Sensitive; “R” represents Resistant
[1] = tested on: MDA-MB-468 breast cell line
Method: (§1) The protein tyrosine kinase inhibitor compound (described in international application WO 00/62778, published Oct. 26, 2000) was tested for cytotoxicity in vitro against a panel of twenty-three human breast cell lines available from the American Type Culture Collection, ATCC, except H3396, which was obtained from Pacific Northwest Research Institute, Seattle Wash. The MCF7/Her2 cell line was established by stable transfection of MCF7 cells with the HER2 gene. Cytotoxicity was assessed in cells by the MTS (3-(4,5-dimethylthiazol-2-yl)-5-(3-carboxymethoxyphenyl)-2-(4-sulphenyl)-2H-tetrazolium, inner salt) assay (T. L. Riss et al., 1992, Mol. Biol. Cell, 3 (Suppl.):184a).
(§2) To carry out the assays, the breast cells were plated at 4,000 cells/well in 96 well microtiter plates, and 24 hours later, serially diluted drugs were added. The concentration range for the protein tyrosine kinase inhibitor compound BMS-A used in the cytotoxicity assay was from 5 μg/ml to 0.0016 μg/ml (roughly 10 μM to 0.0032 μM).
(§3) The cells were incubated at 37° C. for 72 hours at which time the tetrazolium dye, MTS (333 μg/ml final concentration), in combination with the electron coupling agent phenazine methosulfate (25 μM final concentration), was added. A dehydrogenase enzyme in live cells reduces the MTS to a form that absorbs light and can be quantified spectrophotometrically at 492 nM. The greater the absorbency the greater the number of live cells. The results are expressed as an IC50, which is the drug concentration required to inhibit cell proliferation (i.e. absorbance at 492 nm) to 50% of that of untreated control cells. The mean IC50 and standard deviation (SD) from multiple tests for each cell line were calculated.

[2] = tested on: MCF7/Her2 breast cell line
Method: as §1, §2, §3

[3] = tested on: SK-BR-3 breast cell line
Method: as §1, §2, §3

[4] = tested on: MDA-MB-453 breast cell line
Method: as §1, §2, §3

[5] = tested on: HS578T breast cell line
Method: as §1, §2, §3

[6] = tested on: BT-549 breast cell line
Method: as §1, §2, §3

[7] = tested on: HCC1428 breast cell line
Method: as §1, §2, §3

[8] = tested on: BT-20 breast cell line
Method: as §1, §2, §3

[9] = tested on: HCC1419 breast cell line
Method: as §1, §2, §3

[10] = tested on: MDA-MB-231 breast cell line
Method: as §1, §2, §3

[11] = tested on: HCC70 breast cell line
Method: as §1, §2, §3

[12] = 72 hours, mean of 2 to 5 determinations, read-out: mean IC50 (μM) to BMS-A
[13] = assigned as in Table 1, based on the IC50 results for BMS-A
[14] = resistance/sensitivity to BMS-A based on IC50

## Cc1nc(Nc2ncc(C(=O)Nc3c(C)cccc3Cl)s2)cc(N2CCN(CCO)CC2)n1 [BMS-A]
[1]; MDA-MB-468, 72 hours, mean of 2 to 5 determinations, read-out: mean IC50 (μM) to BMS-A
  IC50: 7.13 µM
[1]; MDA-MB-468, resistance/sensitivity to BMS-A based on IC50
  Classification: Resistant (those having a log10(IC50) above the mean log10(IC50) were considered to be resistant)
[1]; MDAMB468, assigned as in Table 1, based on the IC50 results for BMS-A
  True Class: R
[2]; Her2MCF7, assigned as in Table 1, based on the IC50 results for BMS-A
  True Class: R
[2]; MCF7/Her2, 72 hours, mean of 2 to 5 determinations, read-out: mean IC50 (μM) to BMS-A
  IC50: > 9.52 µM
[2]; MCF7/Her2, resistance/sensitivity to BMS-A based on IC50
  Classification: Resistant (those having a log10(IC50) above the mean log10(IC50) were considered to be resistant)
[3]; SK-BR-3, 72 hours, mean of 2 to 5 determinations, read-out: mean IC50 (μM) to BMS-A
  IC50: 2.75 µM
[3]; SK-BR-3, resistance/sensitivity to BMS-A based on IC50
  Classification: Resistant (those having a log10(IC50) above the mean log10(IC50) were considered to be resistant)
[3]; SkBr3, assigned as in Table 1, based on the IC50 results for BMS-A
  True Class: R
[4]; MDA-MB-453, 72 hours, mean of 2 to 5 determinations, read-out: mean IC50 (μM) to BMS-A
  IC50: > 9.52 µM
[4]; MDA-MB-453, resistance/sensitivity to BMS-A based on IC50
  Classification: Resistant (those having a log10(IC50) above the mean log10(IC50) were considered to be resistant)
[4]; MDAMB453, assigned as in Table 1, based on the IC50 results for BMS-A
  True Class: R
[5]; HS578T, 72 hours, mean of 2 to 5 determinations, read-out: mean IC50 (μM) to BMS-A
  IC50: 0.647 µM
[5]; HS578T, resistance/sensitivity to BMS-A based on IC50
  Classification: Sensitive (The cell lines with a log10(IC50) below the mean log10(IC50) were defined as sensitive to the compound)
[5]; Hs578T, assigned as in Table 1, based on the IC50 results for BMS-A
  True Class: S
[6]; BT549, assigned as in Table 1, based on the IC50 results for BMS-A
  True Class: R
[6]; BT-549, 72 hours, mean of 2 to 5 determinations, read-out: mean IC50 (μM) to BMS-A
  IC50: 9.06 µM
[6]; BT-549, resistance/sensitivity to BMS-A based on IC50
  Classification: Resistant (those having a log10(IC50) above the mean log10(IC50) were considered to be resistant)
[7]; [12]
  IC50: 7.29 µM
[7]; [13]
  True Class: R
[7]; [14]
  Classification: Resistant (those having a log10(IC50) above the mean log10(IC50) were considered to be resistant)
[8]; BT20, assigned as in Table 1, based on the IC50 results for BMS-A
  True Class: S
[8]; BT-20, 72 hours, mean of 2 to 5 determinations, read-out: mean IC50 (μM) to BMS-A
  IC50: 0.165 µM
[8]; BT-20, resistance/sensitivity to BMS-A based on IC50
  Classification: Sensitive (The cell lines with a log10(IC50) below the mean log10(IC50) were defined as sensitive to the compound)
[9]; [12]
  IC50: 2.51 µM
[9]; [13]
  True Class: R
[9]; [14]
  Classification: Resistant (those having a log10(IC50) above the mean log10(IC50) were considered to be resistant)
[10]; MDA-MB-231, 72 hours, mean of 2 to 5 determinations, read-out: mean IC50 (μM) to BMS-A
  IC50: 0.0095 µM
[10]; MDA-MB-231, resistance/sensitivity to BMS-A based on IC50
  Classification: Sensitive (The cell lines with a log10(IC50) below the mean log10(IC50) were defined as sensitive to the compound)
[10]; MDAMB231, assigned as in Table 1, based on the IC50 results for BMS-A
  True Class: S
[11]; [12]
  IC50: 0.0337 µM
[11]; [13]
  True Class: S
[11]; [14]
  Classification: Sensitive (The cell lines with a log10(IC50) below the mean log10(IC50) were defined as sensitive to the compound)
